Data on 3 compounds can be found in patent publication US20110086851A1, “SUBSTITUTED QUINAZOLINES AND THEIR USES FOR MYEOLOPROLIFIC AND THROMBOTIC DISEASES” (priority 2008, published 2011).

Data set [1] concerns human phosphodiesterase III (PDE III). Kind of data set: PDE III inhibition. It counts as biochemical. The source says:
In early volunteer trials, the most frequently reported adverse effects AEs other than headache were palpitations, postural dizziness and nausea. During patient studies, the most frequently reported drug-related AEs were headache, palpitations, oedema/fluid retention, nausea/vomiting, diarrhea, dizziness and abdominal pain. These effects are all likely to arise from the secondary, cardiovascular pharmacology associated with anagrelide resulting from its inhibitory effects on human phosphodiesterase III (PDE III). […] Inhibition of myocardial PDE III leads to positive inotropy (increasing of the force of contractions of the heart), increased chronotropy (increase in heart rate), and peripheral vasodilatation. Such cardiovascular manifestations of this inhibition are typically seen with the classical positive inotropes, milrinone and enoximone, and exploited in the short-term acute treatment of congestive heart failure. However, in the treatment of a so-called silent disease (i.e., asymptomatic) such as ET, the cardiovascular side-effects of palpitations and tachycardia associated with anagrelide limit its utility and a significant proportion of patients—reportedly between 25 and 50%—fail to tolerate the drug during long term treatment.

A short description of data set [2]: Pharmacokinetics in humans. The conditions noted are these: after anagrelide treatment. It counts as in vivo, human. An excerpt:
The metabolism of anagrelide generally proceeds extremely rapidly, resulting in a less than ideal pharmacokinetic profile of the drug. […] This, combined with the side-effects profile, can lead to poor patient compliance. Furthermore, anagrelide undergoes a large first pass effect (>50%) leading to considerable intersubject variation in achieved exposures and, therefore, potentially variable drug response. Also, exposure to the pharmacologically active metabolite varies dramatically between patients since its formation is dependent on CYP1A, an enzyme whose expression is highly dependent on exposure to inducing agents such as cigarette smoke. Overall, this may result in the need for careful dose titration in patients being treated with anagrelide.

Data set [3] relates to human megakaryocytopoiesis. To be noted: cited from earlier work.
For data set [4] the following is noted: in vivo; cited from earlier work.
The target of data set [5] is human phosphodiesterase III (PDE III). To be noted: cited from earlier work.
Data set [6] relates to erythroid or myelomonocytic differentiation. To be noted: stimulated by erythropoietin or granulocyte-macrophage colony-stimulating factor; cited from earlier work.

Where a name gives a salt, the structure may show the parent alone.

With `O=C1NC2=Nc3ccc(Cl)c(Cl)c3CN2C1O` (stereo not drawn) [3-hydroxyanagrelide], the “potency as PDE III inhibitor relative to anagrelide” value in data set [1] is reported as “over 40 fold”. For the same compound, the “exposure in vivo relative to the parent drug” value in data set [2] is listed as 2-3 fold. Besides, the “potency of inhibition of megakaryocytopoiesis relative to the parent drug” value in data set [3] was “no more potent than the parent drug”. The typical half-life in data set [4] was 2.5 h.
By IC50 is commonly meant the concentration that inhibits the measured activity by half. Consider `O=C1CN2Cc3c(ccc(Cl)c3Cl)N=C2N1` [Anagrelide, 6,7-dichloro-1,5-dihydroimidazo[2,1-b]-quinazolin-2(3H)-one hydrochloride monohydrate], for which the half-maximal inhibitory concentration (IC50) in data set [3] (in vitro, dose-dependent, read-out: estimated IC50, inhibition of TPO-induced megakaryocytopoiesis) is about 26 nM; in data set [5] it was about 29 nM. For the same compound, the “effect on erythroid or myelomonocytic differentiation” value in data set [6] is on record as “does not affect”. In addition, the first pass effect in data set [4] is over 50%.
For `Cc1[nH]c(=O)c(C#N)cc1-c1ccncc1` [milrinone], the IC50 in data set [5] is 170 to 350 nM.
